Experimental data published in patent EP4603105A1, “PHARMACEUTICAL COMPOSITION CONTAINING CYCLIC COMPOUND HAVING SELECTIVE KRAS INHIBITORY EFFECT AGAINST HRAS AND NRAS” (CHUGAI SEIYAKU KABUSHIKI KAISHA, priority 2022, dated 2024).
Read-outs that look alike come from different tables or passages of the source. *1 amine or outer side, *2 acyl side, *3 side chain or, on linkers, in order; H or OH if unused. Where a SMILES comes first, the peptide text is derived from it. Bridges are numbered along the chain shown (N, C = ends). [ ]: non-standard residue; d: D form. The star is where a group is joined. hPhe(3-Cl-4-CF3) = N[C@@H](CCc1ccc(C(F)(F)F)c(Cl)c1)C(=O)O; NPrPhe(4-CF3) = CCCN[C@@H](Cc1ccc(C(F)(F)F)cc1)C(=O)O; NMeGly(cPent) = CN[C@H](C(=O)O)C1CCCC1; Pro(4,4-F2) = O=C(O)[C@@H]1CC(F)(F)CN1; X9 = CC1(C)CN([*:1])[C@@H]1C(=O)[*:2]; NMeD = CN[C@@H](CC(=O)O)C(=O)O; NMeL = CN[C@@H](CC(C)C)C(=O)O; Morpholide = C1CN(*)CCO1; NMeA = CN[C@@H](C)C(=O)O; Ac5c = NC1(C(=O)O)CCCC1; Aze = O=C(O)[C@@H]1CCN1; Ac4c = NC1(C(=O)O)CCC1; Aib = CC(C)(N)C(=O)O; Sar = CNCC(=O)O

Columns and labels:
[1] = target: GDP-bound NRAS wild-type protein (Homo sapiens, UniProt P01111); experiment: Binding to NRAS by surface plasmon resonance (SPR), KD and KD ratio to KRAS
GDP-bound NRAS wild-type protein, sequence (P01111 whole entry): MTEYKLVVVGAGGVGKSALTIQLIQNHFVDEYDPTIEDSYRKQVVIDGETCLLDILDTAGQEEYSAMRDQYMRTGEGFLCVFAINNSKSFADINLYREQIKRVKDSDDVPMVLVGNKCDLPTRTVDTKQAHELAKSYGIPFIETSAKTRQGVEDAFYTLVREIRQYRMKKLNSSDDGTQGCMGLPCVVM
Method in brief: (§1)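 Single-cycle kinetics on GDP-loaded biotin-Avi RAS captured to ~100–300 RU; 75 s ascending injections, 100 µL/min, 30°C. HBS pH 7.4 + 10 mM MgCl2/10 µM GDP/4% DMSO. 1:1 fit, KD.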

HRAS wild-type protein = HRAS wild-type protein (Homo sapiens, UniProt P01112); experiment: Binding to HRAS by surface plasmon resonance (SPR), KD and KD ratio to KRAS
HRAS wild-type protein, sequence (P01112 whole entry): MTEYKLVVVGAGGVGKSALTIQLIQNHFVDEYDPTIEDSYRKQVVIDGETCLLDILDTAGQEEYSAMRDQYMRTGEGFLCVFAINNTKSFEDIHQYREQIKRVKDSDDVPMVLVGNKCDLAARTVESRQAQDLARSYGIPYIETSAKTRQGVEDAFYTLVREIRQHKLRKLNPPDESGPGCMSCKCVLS
Method in brief: as §1

[2] = system: human lung cancer strain NCI-H441; format: cell-based
Method in brief: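 Proliferation was scored by […] measured after the reagent was added to cultures kept at 37°C in 5% carbon dioxide.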

[3] = ratio of KD for GDP-bound NRAS wild-type protein to KD for KRAS
[4] = ratio of KD for HRAS wild-type protein to KD for KRAS

| IC50 [2] | Structure (SMILES) | NRAS /KRAS [1, 3] | HRAS /KRAS (HRAS wild-type protein; [4]) | IC50 ([2]; NCI-H441 cells, 4 days, CellTiter-Glo, read-out: NCl-H441 IC50) | NRAS /KRAS ([1]; ratio of the KD value with respect to GDP-bound NRAS wild-type protein to the KD value with respect to KRAS) | HRAS /KRAS (HRAS wild-type protein; ratio of the KD value with respect to HRAS wild-type protein to the KD value with respect to KRAS) | NRAS /KRAS ([1]; ratio of KD value for GDP-bound NRAS wild-type protein to KD value for KRAS (SPR)) | HRAS /KRAS (HRAS wild-type protein; ratio of KD value for HRAS wild-type protein to KD value for KRAS (SPR)) |
| --- | --- | --- | --- | --- | --- | --- | --- | --- |
| 69.5 nM | CCCN1C(=O)[C@@H]2CCN2C(=O)[C@H](C)N(C)C(=O)[C@H]([C@@H](C)CC)NC(=O)[C@H](CC(C)C)N(C)C(=O)C[C@@H](C(=O)N2CCOCC2)NC(=O)[C@H](C2CCCC2)N(C)C(=O)C2(CCC2)NC(=O)[C@@H]2CC(F)(F)CN2C(=O)[C@H](CCc2ccc(C(F)(F)F)c(Cl)c2)NC(=O)CN(C)C(=O)[C@@H]1Cc1ccc(C(F)(F)F)cc1 [PP0346] ([NMeL]I[NMeA][Aze][NPrPhe(4-CF3)][Sar][hPhe(3-Cl-4-CF3)][Pro(4,4-F2)][Ac4c][NMeGly(cPent)]D-Morpholide; lactam N-11) | C (A compound having a KD ratio of 0.1 or more and less than 3 is denoted as C) | B (a compound having 3 or more and less than 10 is denoted as B) | – | – | – | – | – |
| 2.4 nM | CCCN1C(=O)[C@@H]2CCN2C(=O)[C@H](C)N(C)C(=O)[C@H]([C@@H](C)CC)NC(=O)[C@H](CC(C)C)N(C)C(=O)C[C@@H](C(=O)N2CCOCC2)N(C)C(=O)[C@H](C2CCCC2)N(C)C(=O)C(C)(C)NC(=O)[C@@H]2CCCN2C(=O)[C@H](CCc2ccc(C(F)(F)F)c(Cl)c2)NC(=O)CN(C)C(=O)[C@@H]1Cc1ccc(C(F)(F)F)cc1 [PP0225] ([NMeL]I[NMeA][Aze][NPrPhe(4-CF3)][Sar][hPhe(3-Cl-4-CF3)]P[Aib][NMeGly(cPent)][NMeD]-Morpholide; lactam N-11) | C (A compound having a KD ratio of 0.1 or more and less than 3 is denoted as C) | C (A compound having a KD ratio of 0.1 or more and less than 3 is denoted as C) | – | – | – | – | – |
| 26.6 nM | CCCN1C(=O)CN(C)C(=O)[C@H]2N(CC2(C)C)C(=O)[C@H]([C@@H](C)CC)NC(=O)[C@H](CC(C)C)N(C)C(=O)C[C@@H](C(=O)N2CCOCC2)N(C)C(=O)[C@H](C2CCCC2)N(C)C(=O)C2(CCCC2)NC(=O)[C@@H]2CCCN2C(=O)[C@H](CCc2ccc(C(F)(F)F)c(Cl)c2)NC(=O)CN(C)C(=O)[C@@H]1Cc1ccc(C(F)(F)F)cc1 [PP0256] ([NMeL]I[X9][Sar][NPrPhe(4-CF3)][Sar][hPhe(3-Cl-4-CF3)]P[Ac5c][NMeGly(cPent)][NMeD]-Morpholide; lactam N-11) | B (a compound having 3 or more and less than 10 is denoted as B) | C (A compound having a KD ratio of 0.1 or more and less than 3 is denoted as C) | – | – | – | – | – |

The next lines start with the compound.

| Structure (SMILES) | IC50 [2] | NRAS /KRAS [1, 3] | HRAS /KRAS (HRAS wild-type protein; [4]) | IC50 ([2]; NCI-H441 cells, 4 days, CellTiter-Glo, read-out: NCl-H441 IC50) | NRAS /KRAS ([1]; ratio of the KD value with respect to GDP-bound NRAS wild-type protein to the KD value with respect to KRAS) | HRAS /KRAS (HRAS wild-type protein; ratio of the KD value with respect to HRAS wild-type protein to the KD value with respect to KRAS) | NRAS /KRAS ([1]; ratio of KD value for GDP-bound NRAS wild-type protein to KD value for KRAS (SPR)) | HRAS /KRAS (HRAS wild-type protein; ratio of KD value for HRAS wild-type protein to KD value for KRAS (SPR)) |
| --- | --- | --- | --- | --- | --- | --- | --- | --- |
| CCC[C@H]1C(=O)N[C@@H]([C@@H](C)CC)C(=O)N(C)CC(=O)N(C)[C@H]2C/C=C\CCN(C2=O)[C@@H](Cc2ccc(C(F)(F)F)cc2)C(=O)N(C)CC(=O)N[C@@H](CCc2ccc(C(F)(F)F)c(Cl)c2)C(=O)N2CC3(CC3)C[C@H]2C(=O)NC2(CC(C)(C)C2)C(=O)N(C)[C@@H](CC(C)C)C(=O)N(C)[C@H](C(=O)N(C)C)CC(=O)N1C [PP2987] | 31.7 nM | AA (a compound having 20 or more is denoted as AA) | A (a compound having 10 or more and less than 20 is denoted as A) | – | – | – | – | – |
| CCOC[C@H]1C(=O)N[C@@H]([C@@H](C)CC)C(=O)N(C)CC(=O)N(C)[C@H]2C/C=C\CCN(C2=O)[C@@H](Cc2ccc(C(C)=O)cc2)C(=O)N(C)CC(=O)N[C@@H](CCc2ccc(C(F)(F)F)c(OC)c2)C(=O)N2C[C@@H](C)C[C@H]2C(=O)NC2(CC(C)(C)C2)C(=O)N(C)[C@@H](C2CCCC2)C(=O)N(C)[C@H](C(=O)N(C)CC)CC(=O)N1C [PP2703] | – | AA (a compound having 20 or more is denoted as AA) | A (a compound having 10 or more and less than 20 is denoted as A) | 80.5 nM | – | – | – | – |
| CCCN(C)C(=O)[C@@H]1CC(=O)N(C)[C@@H](CC(F)F)C(=O)N[C@@H]([C@@H](C)CC)C(=O)N(C)CC(=O)N(C)[C@H]2C/C=C\CCN(C2=O)[C@@H](Cc2ccc(C(F)(F)F)cc2)C(=O)N(C)CC(=O)N[C@@H](CCc2cc(F)c(C(F)(F)F)c(F)c2)C(=O)N2C[C@@H](C)C[C@H]2C(=O)NC2(CCC2)C(=O)N(C)[C@@H](C2CCCC2)C(=O)N1C [PP2000] | 17.7 nM | – | – | – | A (a compound having 10 or more and less than 20 is denoted as A) | B (a compound having 3 or more and less than 10 is denoted as B) | – | – |
| CCC(CC)[C@H]1C(=O)N(C)[C@H](C(=O)N(C)C)CC(=O)N(C)[C@@H](COC)C(=O)N[C@@H]([C@@H](C)CC)C(=O)N(C)CC(=O)N(C)[C@H]2C/C=C\CCN(C2=O)[C@@H](Cc2ccc(C(F)(F)F)cc2)C(=O)N(C)CC(=O)N[C@@H](CCc2cc(F)c(C(F)(F)F)c(F)c2)C(=O)N2CCCCC[C@H]2C(=O)NC2(CC(C)(C)C2)C(=O)N1C [PP3030] | 22.4 nM | AA (a compound having 20 or more is denoted as AA) | A (a compound having 10 or more and less than 20 is denoted as A) | – | – | – | – | – |
| CC[C@H](C)[C@@H]1NC(=O)[C@H](CC)N(C)C(=O)C[C@@H](C(=O)N(C)C)N(C)C(=O)[C@H](C2CCCC2)N(C)C(=O)C2(CC(C)(C)C2)NC(=O)[C@@H]2C[C@@H](C)CN2C(=O)[C@H](CCc2ccc(C(F)(F)F)c(OC)c2)NC(=O)CN(C)C(=O)[C@H](Cc2ccc(C)cc2)N2CC/C=C\C[C@@H](C2=O)N(C)C(=O)CN(C)C1=O [PP1838] | 20 nM | – | – | – | – | – | A (a compound having 10 or more and less than 20 is denoted as A) | A (a compound having 10 or more and less than 20 is denoted as A) |
